Calls of active or inactive are those of the source.
Tests used:
[1] = target: Lysosomal acid glucosylceramidase (Homo sapiens, UniProt P04062); experiment: Dose response cell-based high throughput screening assay to identify enhancers of beta-glucosidase activity. [Related pubchem assays: 784 ]; assay type: functional
[2] = luciferase reporter signal suppression in cells – H4 neuroglioma cells, luminescence, dose response (AID 1990); assay type: functional, cell-based
[3] = luciferase reporter signal reduction – luminescence, H4-C neuroglioblastoma cells, dose response (AID 2458); assay type: functional, cell-based;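 further: H4 neuroglioblastoma cells stably carrying a luciferase reporter gene fusion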
[4] = cells; assay type: functional, cell-based
[5] = Luminescence Cell-Based Dose Response HTS to Identify Inhibitors of 5'UTR Stem-Loop Driven Prion Protein mRNA Translation in H4 Neuroglioblastoma Cells. [Related pubchem assays: 1827 (Project Summary), 1813 (Primary HTS)]; assay type: functional
[6] = alpha-synuclein stem-loop luciferase translation blockers – H4 neuroglioma cells, luminescence, confirmation (AID 1988); assay type: functional, cell-based
[7] = Trypanosoma cruzi growth suppression in host cells – NIH3T3 host cells, beta-gal luminescence, confirmation (AID 2044); assay type: functional, cell-based;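 further: intracellular parasites grown in NIH/3T3 mouse fibroblasts as host cells; luminescent beta-galactosidase reporter signal from transgenic T. cruzi replicating inside host cells; inhibitors lower the luminescence signal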
[8] = NIH3T3 cell viability loss – ATP luminescence, mouse fibroblasts, counter-screen, dose response (AID 2010); assay type: functional, cell-based;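 further: cells exposed to compound for about 90 hours before reading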
[9] = alpha-synuclein stem-loop translation blockers – luminescence, H4 neuroglioblastoma cells, dose confirmation, confirmation (AID 2454); assay type: functional, cell-based;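 further: H4 neuroglioblastoma cells carrying an alpha-synuclein 5'UTR luciferase reporter; potency for inhibition of the luciferase signal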
[10] = target: Paired box protein Pax-8 (Homo sapiens, UniProt Q06710); experiment: PAX8 transcriptional activity inhibition in RMG-I – RMG-I cells, luciferase, cherry-pick, dose response (AID 687027); assay type: functional, cell-based;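 further: luciferase reporter driven by Pax8 target thyroperoxidase promoter measured by SteadyGlo luminescence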
[11] = target: T1, Alkaline phosphatase, tissue-nonspecific isozyme (Homo sapiens, UniProt P05186)
T1 sequence (P05186 whole entry): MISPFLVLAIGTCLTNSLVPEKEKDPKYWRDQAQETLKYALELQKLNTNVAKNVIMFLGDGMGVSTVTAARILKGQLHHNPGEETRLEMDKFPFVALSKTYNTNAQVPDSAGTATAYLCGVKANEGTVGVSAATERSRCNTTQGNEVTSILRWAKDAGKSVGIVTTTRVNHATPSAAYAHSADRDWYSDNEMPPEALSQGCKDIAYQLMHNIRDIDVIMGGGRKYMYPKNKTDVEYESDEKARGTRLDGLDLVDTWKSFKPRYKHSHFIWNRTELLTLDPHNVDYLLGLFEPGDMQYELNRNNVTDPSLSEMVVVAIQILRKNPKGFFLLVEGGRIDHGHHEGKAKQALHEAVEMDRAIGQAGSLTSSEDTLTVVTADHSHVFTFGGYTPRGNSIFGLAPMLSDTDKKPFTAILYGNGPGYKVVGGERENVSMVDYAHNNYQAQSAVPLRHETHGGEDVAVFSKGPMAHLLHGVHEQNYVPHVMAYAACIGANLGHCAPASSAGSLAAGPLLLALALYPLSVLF

[12] = target: T2, Delta-type opioid receptor (Homo sapiens, UniProt P41143); experiment: HTS Image-Based Screen for Antagonists of the DOR Receptor. [Related pubchem assays (depositor defined):AID1777, AID1785, AID1786, AID2133]; assay type: functional
T2 sequence (P41143 whole entry): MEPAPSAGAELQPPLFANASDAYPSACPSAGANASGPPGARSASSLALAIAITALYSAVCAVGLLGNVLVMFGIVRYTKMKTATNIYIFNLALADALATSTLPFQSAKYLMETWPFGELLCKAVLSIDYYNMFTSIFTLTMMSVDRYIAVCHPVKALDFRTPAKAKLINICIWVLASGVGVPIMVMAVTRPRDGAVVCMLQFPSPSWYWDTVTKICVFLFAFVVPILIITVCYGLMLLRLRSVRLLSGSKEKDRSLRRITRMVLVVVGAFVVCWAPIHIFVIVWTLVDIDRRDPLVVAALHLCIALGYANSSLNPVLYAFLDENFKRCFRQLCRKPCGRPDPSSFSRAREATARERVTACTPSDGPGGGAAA

[13] = target: Mu-type opioid receptor (Homo sapiens, UniProt P35372); experiment: HTS Image-Based Screen for Agonists of the MOR Receptor. [Related pubchem assays (depositor defined):AID1777, AID1785, AID1786, AID2133]; assay type: functional;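 further: imaging of beta-arrestin GFP recruitment into spots after receptor activation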
[14] = target: Peroxisome proliferator-activated receptor gamma/Nuclear receptor coactivator 1 (Homo sapiens, UniProt P37231); experiment: (§1) TR-FRET dose response biochemical High Throughput Screening assay for agonists of the steroid receptor coactivator 1 (SRC-1) recruitment by the peroxisome proliferator-activated receptor gamma (PPAR gamma): non-selective agonists. [Related pubchem assays (depositor defined):AID1300, AID1808, AID504735, AID631]; assay type: protein assay
Chain of Peroxisome proliferator-activated receptor gamma/Nuclear receptor coactivator 1 (P37231 whole entry): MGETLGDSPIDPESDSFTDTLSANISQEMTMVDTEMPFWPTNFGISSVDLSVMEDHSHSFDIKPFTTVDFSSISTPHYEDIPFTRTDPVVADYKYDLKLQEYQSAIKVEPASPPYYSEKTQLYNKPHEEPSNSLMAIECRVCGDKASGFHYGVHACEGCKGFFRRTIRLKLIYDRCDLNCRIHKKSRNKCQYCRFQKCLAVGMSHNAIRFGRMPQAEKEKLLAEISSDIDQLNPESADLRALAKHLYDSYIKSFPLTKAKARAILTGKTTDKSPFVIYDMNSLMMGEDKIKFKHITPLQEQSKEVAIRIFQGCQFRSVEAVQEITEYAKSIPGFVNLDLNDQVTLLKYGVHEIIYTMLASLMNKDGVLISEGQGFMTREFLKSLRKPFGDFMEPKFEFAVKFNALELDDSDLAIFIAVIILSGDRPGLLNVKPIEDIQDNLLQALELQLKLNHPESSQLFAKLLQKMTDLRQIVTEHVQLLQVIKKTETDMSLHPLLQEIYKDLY
Chain of Peroxisome proliferator-activated receptor gamma/Nuclear receptor coactivator 1 (Q15788 whole entry, further chain): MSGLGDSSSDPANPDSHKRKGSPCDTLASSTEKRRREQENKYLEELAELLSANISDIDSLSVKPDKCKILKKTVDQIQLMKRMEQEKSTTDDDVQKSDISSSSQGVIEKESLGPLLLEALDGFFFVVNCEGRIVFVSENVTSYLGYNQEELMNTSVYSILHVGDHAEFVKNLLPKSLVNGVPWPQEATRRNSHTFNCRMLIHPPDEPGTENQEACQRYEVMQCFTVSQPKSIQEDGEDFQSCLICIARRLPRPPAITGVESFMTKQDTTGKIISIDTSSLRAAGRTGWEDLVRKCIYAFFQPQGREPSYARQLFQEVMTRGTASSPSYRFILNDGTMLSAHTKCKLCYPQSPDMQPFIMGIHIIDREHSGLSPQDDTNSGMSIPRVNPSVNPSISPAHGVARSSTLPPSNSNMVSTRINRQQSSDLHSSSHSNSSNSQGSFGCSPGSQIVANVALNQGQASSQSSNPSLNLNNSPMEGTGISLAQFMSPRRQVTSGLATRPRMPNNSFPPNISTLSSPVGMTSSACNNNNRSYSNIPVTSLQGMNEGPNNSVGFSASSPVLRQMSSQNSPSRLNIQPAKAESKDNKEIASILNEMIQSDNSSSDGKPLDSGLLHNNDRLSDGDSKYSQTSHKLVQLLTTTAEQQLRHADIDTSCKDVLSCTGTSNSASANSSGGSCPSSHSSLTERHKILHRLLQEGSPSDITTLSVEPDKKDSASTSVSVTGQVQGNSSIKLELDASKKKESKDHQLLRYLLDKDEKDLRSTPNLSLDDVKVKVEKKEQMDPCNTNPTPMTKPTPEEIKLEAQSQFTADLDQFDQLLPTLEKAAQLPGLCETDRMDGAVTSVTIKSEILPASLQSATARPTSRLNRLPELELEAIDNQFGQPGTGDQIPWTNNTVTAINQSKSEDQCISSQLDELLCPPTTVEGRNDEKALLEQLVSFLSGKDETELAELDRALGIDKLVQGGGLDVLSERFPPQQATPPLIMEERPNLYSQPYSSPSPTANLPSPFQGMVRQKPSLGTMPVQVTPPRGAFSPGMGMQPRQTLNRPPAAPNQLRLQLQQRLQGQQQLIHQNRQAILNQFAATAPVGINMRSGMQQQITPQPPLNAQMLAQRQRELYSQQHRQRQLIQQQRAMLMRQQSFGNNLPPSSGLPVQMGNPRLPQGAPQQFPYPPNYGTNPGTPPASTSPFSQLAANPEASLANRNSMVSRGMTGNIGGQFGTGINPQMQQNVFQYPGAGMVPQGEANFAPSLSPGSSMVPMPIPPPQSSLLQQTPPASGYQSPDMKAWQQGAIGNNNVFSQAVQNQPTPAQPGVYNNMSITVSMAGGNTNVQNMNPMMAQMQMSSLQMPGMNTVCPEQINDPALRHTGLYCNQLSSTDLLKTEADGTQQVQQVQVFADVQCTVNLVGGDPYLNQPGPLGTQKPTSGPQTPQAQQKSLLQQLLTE

[15] = target: T2, Delta-type opioid receptor; experiment: HTS Image-Based Screen for Agonists of the DOR Receptor. [Related pubchem assays (depositor defined):AID1777, AID1786, AID2133]; assay type: functional
[16] = target: Peroxisome proliferator-activated receptor gamma/Nuclear receptor coactivator 3 (Homo sapiens, UniProt P37231); experiment: as §1, with “3 (SRC-3)” for “1 (SRC-1)”, “assays: 1301 (Confirmation screen.), 1048 (Primary screen.)]” for “assays (depositor defined):AID1300, AID1808, AID504735, AID631]”; assay type: functional
Chain of Peroxisome proliferator-activated receptor gamma/Nuclear receptor coactivator 3 (P37231 whole entry): as the sequence (P37231 whole entry) above
Chain of Peroxisome proliferator-activated receptor gamma/Nuclear receptor coactivator 3 (Q9Y6Q9 whole entry, further chain): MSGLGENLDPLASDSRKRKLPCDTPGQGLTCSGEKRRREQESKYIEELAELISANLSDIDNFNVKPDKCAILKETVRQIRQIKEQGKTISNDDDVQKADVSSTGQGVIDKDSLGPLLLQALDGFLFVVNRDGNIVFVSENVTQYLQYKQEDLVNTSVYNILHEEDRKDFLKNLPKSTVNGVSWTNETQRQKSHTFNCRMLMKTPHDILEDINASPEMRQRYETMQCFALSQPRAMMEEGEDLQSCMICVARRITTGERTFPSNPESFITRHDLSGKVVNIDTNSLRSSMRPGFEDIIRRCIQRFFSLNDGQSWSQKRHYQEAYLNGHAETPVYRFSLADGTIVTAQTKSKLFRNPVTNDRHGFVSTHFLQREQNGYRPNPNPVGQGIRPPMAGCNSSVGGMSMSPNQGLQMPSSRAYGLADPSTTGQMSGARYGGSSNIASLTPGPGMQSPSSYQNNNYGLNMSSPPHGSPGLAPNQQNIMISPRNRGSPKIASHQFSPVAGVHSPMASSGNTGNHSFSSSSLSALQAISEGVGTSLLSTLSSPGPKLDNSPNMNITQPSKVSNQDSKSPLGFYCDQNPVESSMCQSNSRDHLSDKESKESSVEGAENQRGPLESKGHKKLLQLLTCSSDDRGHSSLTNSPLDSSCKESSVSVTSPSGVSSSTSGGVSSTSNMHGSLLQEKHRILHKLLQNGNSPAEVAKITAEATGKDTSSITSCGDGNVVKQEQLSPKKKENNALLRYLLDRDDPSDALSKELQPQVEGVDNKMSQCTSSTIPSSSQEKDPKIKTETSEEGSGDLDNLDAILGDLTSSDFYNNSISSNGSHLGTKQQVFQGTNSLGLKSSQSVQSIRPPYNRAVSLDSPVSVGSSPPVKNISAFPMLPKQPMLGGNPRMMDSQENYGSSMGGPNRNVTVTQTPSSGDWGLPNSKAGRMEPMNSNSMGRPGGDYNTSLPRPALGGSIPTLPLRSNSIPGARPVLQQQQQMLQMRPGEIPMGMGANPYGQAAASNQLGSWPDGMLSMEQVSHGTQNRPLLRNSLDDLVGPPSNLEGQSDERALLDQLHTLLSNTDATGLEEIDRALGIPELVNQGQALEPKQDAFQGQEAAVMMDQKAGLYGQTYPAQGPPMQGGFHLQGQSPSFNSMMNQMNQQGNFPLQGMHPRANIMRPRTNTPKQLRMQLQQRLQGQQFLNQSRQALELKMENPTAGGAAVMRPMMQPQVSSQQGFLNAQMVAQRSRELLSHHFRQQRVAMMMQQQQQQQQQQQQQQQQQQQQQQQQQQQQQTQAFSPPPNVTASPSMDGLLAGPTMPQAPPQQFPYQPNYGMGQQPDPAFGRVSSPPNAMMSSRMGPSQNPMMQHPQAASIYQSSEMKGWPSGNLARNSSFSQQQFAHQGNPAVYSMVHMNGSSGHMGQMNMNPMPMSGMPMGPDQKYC

[17] = target: G-protein coupled receptor 55 (Homo sapiens, UniProt Q9Y2T6); experiment: inhibition of LPI-stimulated GPR55 beta-arrestin translocation – imaging, U2OS, beta-arrestin-GFP, LPI agonist, primary screen (AID 2013); assay type: functional;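 further: antagonist potency measured as reduced agonist-driven arrestin aggregation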
[18] = microbe, parasite or virus in culture; assay type: functional; details: Mycobacterium tuberculosis
[19] = target: T3, Kappa-type opioid receptor (Homo sapiens, UniProt P41145); assay type: functional
T3 sequence (P41145 whole entry): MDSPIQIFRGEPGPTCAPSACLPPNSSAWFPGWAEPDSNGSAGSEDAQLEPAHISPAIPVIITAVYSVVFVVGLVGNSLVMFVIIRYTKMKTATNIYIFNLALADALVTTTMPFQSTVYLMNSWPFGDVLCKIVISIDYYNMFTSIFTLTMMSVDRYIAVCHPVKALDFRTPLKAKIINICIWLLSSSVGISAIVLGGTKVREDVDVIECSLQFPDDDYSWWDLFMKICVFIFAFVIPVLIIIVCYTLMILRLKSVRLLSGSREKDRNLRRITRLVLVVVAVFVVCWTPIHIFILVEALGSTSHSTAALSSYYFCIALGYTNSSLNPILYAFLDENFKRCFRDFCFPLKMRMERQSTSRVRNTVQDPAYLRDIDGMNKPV

[20] = target: Peroxisome proliferator-activated receptor gamma/Nuclear receptor coactivator 2 (Homo sapiens, UniProt P37231); experiment: TR-FRET dose response biochemical High Throughput Screening assay for agonists of the steroid receptor coactivator 2 (SRC-2) recruitment by the peroxisome proliferator-activated receptor gamma (PPAR gamma): non-selective agonists. [Related pubchem assays: 1297, 1032 ]; assay type: functional
[21] = target: Beta-galactosidase (Escherichia coli, UniProt Q8VNN2); assay type: functional
[22] = target: Sphingosine 1-phosphate receptor 4 (Homo sapiens, UniProt O95977); experiment: Fluorescence dose response cell-based high throughput screening assay for antagonists of the Sphingosine 1-Phosphate Receptor 4 (S1P4). [Related pubchem assays: 1524 (Confirmation in triplicates.), 1510 (Primary screen.)]; assay type: functional
[23] = target: T3, Kappa-type opioid receptor; assay type: functional; remark: listed apart in the source
[24] = target: Sphingosine 1-phosphate receptor 1 (Homo sapiens, UniProt P21453); assay type: functional;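 further: Tango beta-arrestin reporter U2OS cells stimulated with S1P near its EC80; inhibitor potency meaning antagonism of receptor activation by the natural agonist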
Chain of Sphingosine 1-phosphate receptor 1 (P21453 whole entry): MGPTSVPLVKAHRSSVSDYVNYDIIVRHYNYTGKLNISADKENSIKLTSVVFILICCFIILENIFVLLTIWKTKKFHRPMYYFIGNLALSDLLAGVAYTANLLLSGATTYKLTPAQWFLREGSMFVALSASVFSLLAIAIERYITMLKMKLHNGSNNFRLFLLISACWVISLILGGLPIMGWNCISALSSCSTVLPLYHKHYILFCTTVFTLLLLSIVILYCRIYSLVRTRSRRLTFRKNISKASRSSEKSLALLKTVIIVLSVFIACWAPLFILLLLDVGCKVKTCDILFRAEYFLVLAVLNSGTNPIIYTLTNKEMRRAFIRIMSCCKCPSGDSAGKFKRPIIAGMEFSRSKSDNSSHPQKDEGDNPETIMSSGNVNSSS

[25] = target: T4, Replicative DNA helicase DnaB (Mycobacterium tuberculosis, UniProt P9WMR3); experiment: DnaB intein splicing inhibitors, dose response, biochemical, cell-free fluorescence (AID 449749); assay type: functional
T4 sequence (P9WMR3 whole entry): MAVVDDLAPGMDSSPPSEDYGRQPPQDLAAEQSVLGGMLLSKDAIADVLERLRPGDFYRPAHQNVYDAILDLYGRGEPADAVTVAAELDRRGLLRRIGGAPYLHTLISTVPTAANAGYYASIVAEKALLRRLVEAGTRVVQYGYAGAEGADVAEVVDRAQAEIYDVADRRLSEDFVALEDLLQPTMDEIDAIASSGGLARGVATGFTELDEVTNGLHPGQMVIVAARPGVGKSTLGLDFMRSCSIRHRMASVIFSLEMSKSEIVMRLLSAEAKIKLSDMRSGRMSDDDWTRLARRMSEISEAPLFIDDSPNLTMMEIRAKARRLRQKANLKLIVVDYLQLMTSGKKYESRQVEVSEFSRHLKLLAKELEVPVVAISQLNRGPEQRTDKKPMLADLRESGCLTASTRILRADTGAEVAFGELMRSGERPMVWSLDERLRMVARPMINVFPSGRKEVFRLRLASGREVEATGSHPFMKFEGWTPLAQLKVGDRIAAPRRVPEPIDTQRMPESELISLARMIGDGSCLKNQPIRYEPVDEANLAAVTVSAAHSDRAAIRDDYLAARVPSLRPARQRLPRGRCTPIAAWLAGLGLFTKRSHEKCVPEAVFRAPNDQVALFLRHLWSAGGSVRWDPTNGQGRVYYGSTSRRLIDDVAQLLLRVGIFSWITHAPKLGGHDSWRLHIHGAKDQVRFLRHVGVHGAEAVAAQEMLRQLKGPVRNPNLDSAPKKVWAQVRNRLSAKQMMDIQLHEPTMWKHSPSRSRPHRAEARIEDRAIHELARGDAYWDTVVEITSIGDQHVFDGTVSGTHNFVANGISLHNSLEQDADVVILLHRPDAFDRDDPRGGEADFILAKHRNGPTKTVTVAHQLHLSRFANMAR

[26] = target: T5, Protein RecA (Mycobacterium tuberculosis, UniProt P9WHJ3); experiment: Fluorescence Cell-Free Homogeneous Dose Retest to Identify Inhibitors of RecA-Intein Splicing Activity. [Related pubchem assays (depositor defined):AID2097, AID2223, AID489010, AID492950]; assay type: functional
T5 sequence (P9WHJ3 whole entry): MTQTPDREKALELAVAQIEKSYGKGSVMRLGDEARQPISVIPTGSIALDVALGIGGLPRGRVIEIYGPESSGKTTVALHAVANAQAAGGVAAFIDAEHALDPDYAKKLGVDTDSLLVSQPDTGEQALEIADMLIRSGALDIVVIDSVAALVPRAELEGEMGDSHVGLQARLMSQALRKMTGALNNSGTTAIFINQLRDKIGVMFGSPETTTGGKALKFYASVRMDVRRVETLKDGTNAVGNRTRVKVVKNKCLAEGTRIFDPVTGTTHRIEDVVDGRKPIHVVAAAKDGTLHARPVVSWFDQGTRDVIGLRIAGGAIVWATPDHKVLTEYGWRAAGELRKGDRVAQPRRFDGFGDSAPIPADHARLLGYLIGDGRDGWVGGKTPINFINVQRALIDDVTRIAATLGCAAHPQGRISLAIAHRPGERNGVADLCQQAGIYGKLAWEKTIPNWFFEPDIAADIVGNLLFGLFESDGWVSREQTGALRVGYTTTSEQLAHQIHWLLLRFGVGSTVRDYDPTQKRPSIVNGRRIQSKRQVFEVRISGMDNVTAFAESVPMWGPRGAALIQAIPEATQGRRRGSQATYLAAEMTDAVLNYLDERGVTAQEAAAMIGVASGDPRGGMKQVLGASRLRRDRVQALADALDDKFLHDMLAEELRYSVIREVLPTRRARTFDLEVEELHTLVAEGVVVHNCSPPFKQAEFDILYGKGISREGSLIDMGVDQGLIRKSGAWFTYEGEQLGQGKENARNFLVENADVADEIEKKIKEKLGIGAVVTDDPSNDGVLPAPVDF

[27] = tested on: INS1; experiment: INS-1E survival protection against cytokine death – cell-based, luminescence, retest, dose response (AID 449756); assay type: functional; details: Rattus norvegicus;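 further: cell death triggered by IL-1 beta plus TNF-alpha plus IFN-gamma mixture; protective hits raise ATP signal compared with cytokine alone wells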
[28] = viability loss in Vero cells – cytotoxicity control for Vif-APOBEC3G degradation inhibitor project, dose response (AID 1117358); assay type: functional; details: Vero

Which EC50 [1] does the source give for `CC(C)Oc1cccc(C(=O)Nc2ccccc2N2CCOCC2)c1` here?
The EC50 was > 50 µM (not active).

Which EC50 [2] does the source give for `CC(=O)OC(C)(C)/C=C/C(=O)C(C)(O)C1[C@H](O)C[C@@]2(C)C3CC=C4C(CC[C@@H](O)C4(C)C)[C@]3(CO)C(=O)C[C@]12C` (stereo partly specified) here?
The EC50 was < 0.1 µM (active).

What about the EC50 [3] of the same molecule?
The EC50 was 0.083 µM (active).

And the EC50 [4]?
The EC50 was 0.08 µM (active).

And the EC50 [5]?
The EC50 was < 0.1 µM (active).

And the EC50 [6]?
The EC50 was < 0.1 µM (active).

What about the EC50 [7] of the same molecule?
Its EC50 is 0.33 µM (active).

What about the EC50 [8] of the same molecule?
Its EC50 is 8.65 µM (active).

And the EC50 [9]?
Its EC50 is 0.082 µM (active).

And the AC50 [10]?
Its AC50 is < 0.26 µM (active).

With `CCOC1Cc2ccccc2N(C(N)=O)c2ccccc21` (stereo unspecified) as the molecule, how does the EC50 [11] read?
The EC50 was > 100 µM (not active).

For `O=C(OCn1ncc(Br)c(Br)c1=O)c1ccc(F)cc1`, which IC50 [12] is on record?
Its IC50 is 10.3 µM (inactive).

And the EC50 [2]?
Its EC50 is > 120 µM (not active).

What about the EC50 [13] of the same molecule?
The EC50 was > 32 µM (inactive).

And the EC50 [14]?
Its EC50 is > 79.4 µM (inactive).

What about the EC50 [15] of the same molecule?
Its EC50 is > 32 µM (inactive).

And the EC50 [5]?
The EC50 was 5.79 µM (active).

And the EC50 [16]?
The EC50 was > 79.4 µM (not active).

What about the EC50 [6] of the same molecule?
Its EC50 is > 120 µM (not active).

What about the IC50 [17] of the same molecule?
The IC50 was 5.05 µM (active).

And the CC50 [18]?
The CC50 was 9.1 µM (active).

And the IC50 [19]?
Its IC50 is 18.8 µM (active).

And the EC50 [20]?
Its EC50 is 72.3 µM (not active).

What about the EC50 [21] of the same molecule?
Its EC50 is > 31.5 µM (inactive).

And the IC50 [22]?
The IC50 was 1.66 µM (active).

And the IC50 [23]?
The IC50 was 6.83 µM.

And the IC50 [24]?
The IC50 was 13.6 µM (not active).

And the AC50 [25]?
The AC50 was 2.02 µM (active).

And the EC50 [26]?
The EC50 was 0.473 µM (active).

What about the AC50 [27] of the same molecule?
The AC50 was 4.94 µM (active).

What about the CC50 [28] of the same molecule?
The CC50 was 8.69 µM (active).
